Experiment: Stress testing (accelerated test for 10 days) of the solid: crystal form B and crude product
Assay type: physicochemical
Details: for Purity compared with day 0 (in words): accelerated test for 10 days
Description: Detection instrument: Agilent 1260 series (U.S.)
Chromatographic column: Waters Sunfire C18;
Mobile phase A: water-mobile phase acetonitrile B (80:20);
Column temperature: 40° C.; Detection wavelength: 390 nm.
Detection basis: High performance liquid chromatography method, Pharmacopoeia of the People's Republic of China, Part II Appendix VD
The obtained crystal form B was subjected to stability studies (accelerated test for 10 days), to compare the data of purity, maximum single impurity and total impurities of the new crystal form under the conditions of 60° C., humidity 92.5%, and light irradiation with the data on day 0.
The crude product of (3Z,6Z)-3-[((E)-3-(5-tert-butyl)-1H-imidazolyl-4-yl)meth ylene]-6-((E)-3-(3-fluorophenyl)-2-propenylene)piperazine-2,5-dione was subjected to stability studies (accelerated test for 10 days), to compare the data of purity, maximum single impurity of the crude product stored at 40° C., 60° C. to the data on day 0.

[1] = Day 10, sample 1, no stress condition given

CC(C)(C)c1nc[nH]c1/C=c1\[nH]c(=O)/c(=C/C=C/c2cccc(F)c2)[nH]c1=O [crystal form B, (3Z,6Z)-3-[((E)-3-(5-tert-butyl)-1H-imidazolyl-4-yl)methylene]-6-((E)-3-(3-fluorophenyl)-2-propenylene)piperazine-2,5-dione]
Maximum single impurity (%) (Day 0): 0.24 (RRT: 0.95) % | Purity (%) (Day 0): 99.50% | Total impurities (%) (Day 0): 0.50% | Maximum single impurity (%) (Day 5, 60° C.): 0.24 (RRT: 0.95) % | Purity (%) (Day 5, 60° C.): 99.50% | Total impurities (%) (Day 5, 60° C.): 0.50% | Maximum single impurity (%) (Day 5, humidity 92.5%): 0.24 (RRT: 0.95) % | Purity (%) (Day 5, humidity 92.5%): 99.50% | Total impurities (%) (Day 5, humidity 92.5%): 0.50% | Maximum single impurity (%) (Day 5, light irradiation): 0.26 (RRT: 0.95) % | Purity (%) (Day 5, light irradiation): 99.40% | Total impurities (%) (Day 5, light irradiation): 0.60% | Maximum single impurity (%) (Day 10, 60° C.): 0.24 (RRT: 0.95) % | Purity (%) (Day 10, 60° C.): 99.50% | Total impurities (%) (Day 10, 60° C.): 0.50% | Maximum single impurity (%) (Day 10, humidity 92.5%): 0.24 (RRT: 0.95) % | Purity (%) (Day 10, humidity 92.5%): 99.50% | Total impurities (%) (Day 10, humidity 92.5%): 0.50% | Maximum single impurity (%) (Day 10, light irradiation): 0.26 (RRT: 0.95) % | Purity (%) (Day 10, light irradiation): 99.40% | Total impurities (%) (Day 10, light irradiation): 0.60% | Maximum single impurity (%) [1]: 0.24 (RRT: 0.95) % | Purity (%) [1]: 99.50% | Total impurities (%) [1]: 0.50% | Purity compared with day 0 (in words) (light irradiation): slightly reduced | Purity compared with day 0 (in words) (other conditions (60° C., humidity 92.5%)): stable

CC(C)(C)c1nc[nH]c1/C=c1\[nH]c(=O)/c(=C/C=C/c2cccc(F)c2)[nH]c1=O [Crude product, (3Z,6Z)-3-[((E)-3-(5-tert-butyl)-1H-imidazolyl-4-yl)methylene]-6-((E)-3-(3-fluorophenyl)-2-propenylene)piperazine-2,5-dione]
Purity compared with crystal form B under the same conditions (in words) (60° C., day 5 and day 10): lower than that of the crystal form B | Content (%) (crude product, 40° C. Day 5): 99.08% | Maximum single impurity (%) (crude product, 40° C. Day 5): 0.25(RRT: 0.95) % | Content (%) (crude product, 40° C. Day 10): 98.68% | Maximum single impurity (%) (crude product, 40° C. Day 10): 0.50(RRT: 0.95) % | Content (%) (crude product, 60° C. Day 5): 96.89% | Maximum single impurity (%) (crude product, 60° C. Day 5): 1.14(RRT: 0.91) % | Content (%) (crude product, 60° C. Day 10): 95.27% | Maximum single impurity (%) (crude product, 60° C. Day 10): 1.88(RRT: 0.91) % | Content (%) (crude product, Day 0): 99.49% | Maximum single impurity (%) (crude product, Day 0): 0.24(RRT: 0.95) %

Reference: US11192882B2, “Crystal form of small molecule immune compound, preparation method thereof and pharmaceutical composition containing the same” (SHENZHEN NEPTUNUS PHARMACEUTICAL RESEARCH INSTITUTE CO., …, priority 2018, dated 2021)
